Assay results published in the kinase profiling compilation of Christmann-Franck et al. (2016).

Experiments:
Test in all cases: radiometric filter-binding kinase assay, Kinase HotSpot
Settings in all cases: compound 0.5 µM; ATP 10 µM
WEE1 (human) = WEE1 (human) (UniProt P30291)
MAP3K9 (human) = MAP3K9 (human) (UniProt P80192)
[1] = tested on: FLT4 (human), P35916 [Q890H]
CSNK2A2 (human) = CSNK2A2 (human) (UniProt P19784)
TBK1 (human) = TBK1 (human) (UniProt Q9UHD2)
RPS6KA4 KD2 (human) = RPS6KA4 KD2 (human) (UniProt O75676)
MET (human) = MET (human) (UniProt P08581)
MAPKAPK3 (human) = MAPKAPK3 (human) (UniProt Q16644)
HCK (human) = HCK (human) (UniProt P08631)
ERBB2 (human) = ERBB2 (human) (UniProt P04626)
EPHA2 (human) = EPHA2 (human) (UniProt P29317)
SRPK2 (human) = SRPK2 (human) (UniProt P78362)
ACVRL1 (human) = ACVRL1 (human) (UniProt P37023)
RPS6KB2 (human) = RPS6KB2 (human) (UniProt Q9UBS0)
CLK4 (human) = CLK4 (human) (UniProt Q9HAZ1)
HIPK2 (human) = HIPK2 (human) (UniProt Q9H2X6)
PRKCE (human) = PRKCE (human) (UniProt Q02156)
RPS6KA3 KD1 KD2 (human) = RPS6KA3 KD1 KD2 (human) (UniProt P51812)
CSNK2A1 (human) = CSNK2A1 (human) (UniProt P68400)
CDK1 CCNB1 (human) = CDK1 CCNB1 (human) (UniProt P06493+P14635)
CDK5 CDK5R1 p25 (human) = CDK5 CDK5R1 p25 (human) (UniProt Q00535+Q15078)
NTRK1 (human) = NTRK1 (human) (UniProt P04629)
EPHA1 (human) = EPHA1 (human) (UniProt P21709)
ROS1 (human) = ROS1 (human) (UniProt P08922)
CDK4 CCND3 (human) = CDK4 CCND3 (human) (UniProt P30281+P11802)
PKN2 (human) = PKN2 (human) (UniProt Q16513)
PIM1 (human) = PIM1 (human) (UniProt P11309)
ULK1 (human) = ULK1 (human) (UniProt O75385)
FGFR4 (human) = FGFR4 (human) (UniProt P22455)
VRK1 (human) = VRK1 (human) (UniProt Q99986)
NUAK2 (human) = NUAK2 (human) (UniProt Q9H093)
WNK2 (human) = WNK2 (human) (UniProt Q9Y3S1)
GRK4 (human) = GRK4 (human) (UniProt P32298)
NEK11 (human) = NEK11 (human) (UniProt Q8NG66)
CDK2 CCNA2 (human) = CDK2 CCNA2 (human) (UniProt P24941+P20248)
SRMS (human) = SRMS (human) (UniProt Q9H3Y6)
EPHB3 (human) = EPHB3 (human) (UniProt P54753)
AURKA (human) = AURKA (human) (UniProt O14965)
ULK2 (human) = ULK2 (human) (UniProt Q8IYT8)
GRK6 (human) = GRK6 (human) (UniProt P43250)
PNCK (human) = PNCK (human) (UniProt Q6P2M8)
Sequence of PNCK (human) (Q6P2M8 whole entry, looked up): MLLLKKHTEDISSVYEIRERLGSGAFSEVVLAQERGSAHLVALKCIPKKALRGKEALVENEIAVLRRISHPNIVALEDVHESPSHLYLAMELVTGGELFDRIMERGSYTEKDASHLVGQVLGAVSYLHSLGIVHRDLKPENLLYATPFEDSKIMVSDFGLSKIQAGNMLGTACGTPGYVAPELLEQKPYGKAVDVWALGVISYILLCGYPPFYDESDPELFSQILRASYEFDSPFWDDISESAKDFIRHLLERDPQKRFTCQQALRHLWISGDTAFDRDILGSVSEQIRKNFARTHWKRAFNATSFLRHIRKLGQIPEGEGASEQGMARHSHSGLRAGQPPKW

Sequence of CSNK2A2 (human) (P19784 whole entry, looked up): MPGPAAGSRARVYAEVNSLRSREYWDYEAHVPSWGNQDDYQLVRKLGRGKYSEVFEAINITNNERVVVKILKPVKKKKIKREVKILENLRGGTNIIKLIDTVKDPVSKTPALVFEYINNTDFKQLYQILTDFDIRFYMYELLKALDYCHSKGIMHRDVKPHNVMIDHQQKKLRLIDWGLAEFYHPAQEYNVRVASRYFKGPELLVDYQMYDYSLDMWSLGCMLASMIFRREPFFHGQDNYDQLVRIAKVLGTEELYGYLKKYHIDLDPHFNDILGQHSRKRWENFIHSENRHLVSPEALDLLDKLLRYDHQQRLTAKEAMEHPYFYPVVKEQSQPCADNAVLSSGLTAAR
Sequence of AURKA (human) (O14965 whole entry, looked up): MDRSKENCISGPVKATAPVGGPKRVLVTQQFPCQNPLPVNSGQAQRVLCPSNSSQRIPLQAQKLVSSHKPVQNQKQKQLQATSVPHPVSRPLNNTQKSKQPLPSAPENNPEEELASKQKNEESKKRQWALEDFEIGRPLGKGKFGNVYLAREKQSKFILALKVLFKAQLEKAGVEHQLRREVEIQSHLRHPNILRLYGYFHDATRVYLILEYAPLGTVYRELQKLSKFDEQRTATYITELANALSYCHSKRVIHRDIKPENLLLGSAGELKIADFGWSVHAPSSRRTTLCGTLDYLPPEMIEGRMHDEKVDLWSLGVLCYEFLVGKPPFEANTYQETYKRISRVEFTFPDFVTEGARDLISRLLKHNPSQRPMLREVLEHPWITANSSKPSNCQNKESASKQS
Sequence of CDK4 CCND3 (human) (P11802 whole entry, looked up): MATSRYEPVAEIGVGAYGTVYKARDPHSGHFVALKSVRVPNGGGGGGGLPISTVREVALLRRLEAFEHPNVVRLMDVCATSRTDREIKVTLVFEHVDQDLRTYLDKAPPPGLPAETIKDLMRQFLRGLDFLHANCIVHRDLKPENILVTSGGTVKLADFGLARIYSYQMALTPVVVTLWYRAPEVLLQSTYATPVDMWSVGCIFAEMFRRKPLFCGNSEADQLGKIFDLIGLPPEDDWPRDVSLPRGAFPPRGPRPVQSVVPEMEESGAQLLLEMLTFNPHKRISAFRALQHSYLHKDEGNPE
Sequence of CDK4 CCND3 (human) (P30281 whole entry, looked up): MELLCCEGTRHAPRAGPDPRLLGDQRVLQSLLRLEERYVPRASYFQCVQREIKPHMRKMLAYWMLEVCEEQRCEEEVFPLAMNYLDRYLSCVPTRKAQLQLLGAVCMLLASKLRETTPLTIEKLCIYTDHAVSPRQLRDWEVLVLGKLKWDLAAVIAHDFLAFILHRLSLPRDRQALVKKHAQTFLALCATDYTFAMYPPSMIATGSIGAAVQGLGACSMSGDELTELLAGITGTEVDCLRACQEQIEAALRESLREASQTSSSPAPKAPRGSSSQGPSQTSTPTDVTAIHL
Sequence of PIM1 (human) (P11309 whole entry, looked up): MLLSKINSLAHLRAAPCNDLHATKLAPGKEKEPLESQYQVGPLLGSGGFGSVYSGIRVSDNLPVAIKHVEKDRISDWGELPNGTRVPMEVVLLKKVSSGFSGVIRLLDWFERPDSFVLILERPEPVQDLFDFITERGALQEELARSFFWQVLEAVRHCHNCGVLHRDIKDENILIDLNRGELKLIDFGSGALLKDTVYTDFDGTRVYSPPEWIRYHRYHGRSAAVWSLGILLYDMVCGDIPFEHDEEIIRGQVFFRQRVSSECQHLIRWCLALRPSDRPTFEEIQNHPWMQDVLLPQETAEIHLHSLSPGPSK
Sequence of EPHB3 (human) (P54753 whole entry, looked up): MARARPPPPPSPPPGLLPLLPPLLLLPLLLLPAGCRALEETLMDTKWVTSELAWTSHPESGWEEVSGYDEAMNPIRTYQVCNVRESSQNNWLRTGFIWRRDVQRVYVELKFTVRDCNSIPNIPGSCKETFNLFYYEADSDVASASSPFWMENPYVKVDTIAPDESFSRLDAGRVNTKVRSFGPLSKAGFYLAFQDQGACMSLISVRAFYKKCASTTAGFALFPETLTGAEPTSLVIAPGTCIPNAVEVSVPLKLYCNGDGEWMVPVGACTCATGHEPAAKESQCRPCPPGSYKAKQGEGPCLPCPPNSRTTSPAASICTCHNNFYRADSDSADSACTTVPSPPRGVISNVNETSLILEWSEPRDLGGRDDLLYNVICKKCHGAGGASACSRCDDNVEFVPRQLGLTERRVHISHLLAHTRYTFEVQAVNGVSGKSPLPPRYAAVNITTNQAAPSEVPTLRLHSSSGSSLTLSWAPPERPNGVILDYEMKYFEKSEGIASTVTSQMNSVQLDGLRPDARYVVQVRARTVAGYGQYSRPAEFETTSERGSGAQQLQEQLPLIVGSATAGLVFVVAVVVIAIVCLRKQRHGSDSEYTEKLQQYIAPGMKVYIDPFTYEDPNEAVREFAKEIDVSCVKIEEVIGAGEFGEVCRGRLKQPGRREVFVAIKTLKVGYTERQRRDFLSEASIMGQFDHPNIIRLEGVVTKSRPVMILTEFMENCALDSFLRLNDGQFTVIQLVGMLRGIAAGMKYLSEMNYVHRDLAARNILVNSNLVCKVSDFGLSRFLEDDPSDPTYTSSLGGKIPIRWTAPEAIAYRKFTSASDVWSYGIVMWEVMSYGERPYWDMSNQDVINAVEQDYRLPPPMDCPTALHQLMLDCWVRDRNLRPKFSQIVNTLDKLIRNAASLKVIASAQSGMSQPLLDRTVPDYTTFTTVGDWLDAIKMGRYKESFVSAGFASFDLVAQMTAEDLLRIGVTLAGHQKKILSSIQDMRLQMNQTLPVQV
Sequence of SRPK2 (human) (P78362 whole entry, looked up): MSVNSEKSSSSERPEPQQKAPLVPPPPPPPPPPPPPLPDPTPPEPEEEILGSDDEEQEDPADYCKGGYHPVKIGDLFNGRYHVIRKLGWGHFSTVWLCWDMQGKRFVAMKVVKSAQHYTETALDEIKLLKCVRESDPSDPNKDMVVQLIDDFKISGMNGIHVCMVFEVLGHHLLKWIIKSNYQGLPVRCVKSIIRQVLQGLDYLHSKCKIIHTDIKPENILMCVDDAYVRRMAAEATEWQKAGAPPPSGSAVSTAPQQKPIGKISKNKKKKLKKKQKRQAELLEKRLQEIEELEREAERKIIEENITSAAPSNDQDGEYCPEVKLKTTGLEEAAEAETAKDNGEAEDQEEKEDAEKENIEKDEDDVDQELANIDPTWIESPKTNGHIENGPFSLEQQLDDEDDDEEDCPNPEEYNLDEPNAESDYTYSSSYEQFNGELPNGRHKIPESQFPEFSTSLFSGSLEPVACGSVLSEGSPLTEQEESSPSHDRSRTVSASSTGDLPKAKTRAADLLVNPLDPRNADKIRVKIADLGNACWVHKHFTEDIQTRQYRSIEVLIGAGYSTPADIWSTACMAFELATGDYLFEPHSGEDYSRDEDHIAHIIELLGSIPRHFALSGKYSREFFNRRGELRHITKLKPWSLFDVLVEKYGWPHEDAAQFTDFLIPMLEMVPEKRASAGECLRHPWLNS
Sequence of CDK1 CCNB1 (human) (P06493 whole entry, looked up): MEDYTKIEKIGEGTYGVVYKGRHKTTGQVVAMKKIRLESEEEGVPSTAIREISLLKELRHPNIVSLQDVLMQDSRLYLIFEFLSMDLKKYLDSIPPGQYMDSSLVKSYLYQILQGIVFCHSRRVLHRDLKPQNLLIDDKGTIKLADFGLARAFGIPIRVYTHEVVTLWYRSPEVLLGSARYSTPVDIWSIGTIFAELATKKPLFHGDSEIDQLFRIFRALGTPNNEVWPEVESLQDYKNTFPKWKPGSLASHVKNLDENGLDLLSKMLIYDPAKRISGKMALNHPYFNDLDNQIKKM
Sequence of CDK1 CCNB1 (human) (P14635 whole entry, looked up): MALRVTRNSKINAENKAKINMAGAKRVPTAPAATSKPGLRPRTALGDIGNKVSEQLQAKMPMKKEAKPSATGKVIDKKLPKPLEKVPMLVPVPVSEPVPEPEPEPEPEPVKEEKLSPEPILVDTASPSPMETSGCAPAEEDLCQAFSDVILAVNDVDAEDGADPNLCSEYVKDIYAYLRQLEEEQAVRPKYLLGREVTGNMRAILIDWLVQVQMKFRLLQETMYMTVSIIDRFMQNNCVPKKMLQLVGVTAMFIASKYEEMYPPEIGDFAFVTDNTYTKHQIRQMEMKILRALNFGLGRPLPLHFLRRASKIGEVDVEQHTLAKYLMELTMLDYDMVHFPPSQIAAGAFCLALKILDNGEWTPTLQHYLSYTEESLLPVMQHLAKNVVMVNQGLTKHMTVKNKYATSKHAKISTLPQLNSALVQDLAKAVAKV
Sequence of ACVRL1 (human) (P37023 whole entry, looked up): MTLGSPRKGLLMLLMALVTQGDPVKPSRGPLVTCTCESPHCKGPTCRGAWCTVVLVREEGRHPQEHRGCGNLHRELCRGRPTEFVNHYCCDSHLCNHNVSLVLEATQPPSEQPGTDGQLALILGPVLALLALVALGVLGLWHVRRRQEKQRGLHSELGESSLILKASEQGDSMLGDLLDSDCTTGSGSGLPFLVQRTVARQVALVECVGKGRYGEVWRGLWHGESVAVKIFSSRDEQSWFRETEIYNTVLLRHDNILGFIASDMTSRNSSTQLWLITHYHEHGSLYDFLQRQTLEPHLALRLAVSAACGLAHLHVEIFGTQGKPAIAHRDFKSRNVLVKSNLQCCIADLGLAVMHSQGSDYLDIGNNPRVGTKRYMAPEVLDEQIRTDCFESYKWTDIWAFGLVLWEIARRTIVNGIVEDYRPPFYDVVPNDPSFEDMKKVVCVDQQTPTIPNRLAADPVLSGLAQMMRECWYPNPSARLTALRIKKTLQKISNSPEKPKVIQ

## CCCCc1c(-c2ccc(OC)cc2)[nH]c2nccnc12
WEE1 (human)
  residual activity: 85.9%
MAP3K9 (human)
  residual activity: 39.8%
[1]
  residual activity: 81.1%
CSNK2A2 (human)
  residual activity: 94.1%
TBK1 (human)
  residual activity: 81.4%
RPS6KA4 KD2 (human)
  residual activity: 89.4%
MET (human)
  residual activity: 86.8%
MAPKAPK3 (human)
  residual activity: 98.6%
HCK (human)
  residual activity: 94.4%
ERBB2 (human)
  residual activity: 96.4%
EPHA2 (human)
  residual activity: 87.9%
SRPK2 (human)
  residual activity: 105%
ACVRL1 (human)
  residual activity: 77%
RPS6KB2 (human)
  residual activity: 99.7%
CLK4 (human)
  residual activity: 73.2%
HIPK2 (human)
  residual activity: 109%
PRKCE (human)
  residual activity: 102%
RPS6KA3 KD1 KD2 (human)
  residual activity: 88%
CSNK2A1 (human)
  residual activity: 97.8%
CDK1 CCNB1 (human)
  residual activity: 47.7%
CDK5 CDK5R1 p25 (human)
  residual activity: 41.3%
NTRK1 (human)
  residual activity: 109%
EPHA1 (human)
  residual activity: 67.9%
ROS1 (human)
  residual activity: 37.5%
CDK4 CCND3 (human)
  residual activity: 69.7%
PKN2 (human)
  residual activity: 88.6%
PIM1 (human)
  residual activity: 97%
ULK1 (human)
  residual activity: 87.9%
FGFR4 (human)
  residual activity: 92.5%
VRK1 (human)
  residual activity: 95.5%
NUAK2 (human)
  residual activity: 68%
WNK2 (human)
  residual activity: 112%
GRK4 (human)
  residual activity: 96.7%
NEK11 (human)
  residual activity: 93.6%
CDK2 CCNA2 (human)
  residual activity: 36.3%
SRMS (human)
  residual activity: 96.7%
EPHB3 (human)
  residual activity: 99.8%
AURKA (human)
  residual activity: 25.5%
ULK2 (human)
  residual activity: 108%
GRK6 (human)
  residual activity: 88.3%
PNCK (human)
  residual activity: 120%

## COc1cc2ncnc(Nc3ccc(OCc4ccccc4)cc3)c2cc1OC
WEE1 (human)
  residual activity: 94.7%
MAP3K9 (human)
  residual activity: 96.5%
[1]
  residual activity: 98.9%
CSNK2A2 (human)
  residual activity: 95.3%
TBK1 (human)
  residual activity: 101%
RPS6KA4 KD2 (human)
  residual activity: 105%
MET (human)
  residual activity: 98.9%
MAPKAPK3 (human)
  residual activity: 102%
HCK (human)
  residual activity: 74.5%
ERBB2 (human)
  residual activity: 42.6%
EPHA2 (human)
  residual activity: 106%
SRPK2 (human)
  residual activity: 92.3%
ACVRL1 (human)
  residual activity: 102%
RPS6KB2 (human)
  residual activity: 108%
CLK4 (human)
  residual activity: 99.5%
HIPK2 (human)
  residual activity: 111%
PRKCE (human)
  residual activity: 99.4%
RPS6KA3 KD1 KD2 (human)
  residual activity: 103%
CSNK2A1 (human)
  residual activity: 95.8%
CDK1 CCNB1 (human)
  residual activity: 89.9%
CDK5 CDK5R1 p25 (human)
  residual activity: 97.8%
NTRK1 (human)
  residual activity: 97.1%
EPHA1 (human)
  residual activity: 102%
ROS1 (human)
  residual activity: 98%
CDK4 CCND3 (human)
  residual activity: 102%
PKN2 (human)
  residual activity: 94.1%
PIM1 (human)
  residual activity: 102%
ULK1 (human)
  residual activity: 107%
FGFR4 (human)
  residual activity: 106%
VRK1 (human)
  residual activity: 89%
NUAK2 (human)
  residual activity: 101%
WNK2 (human)
  residual activity: 91.6%
GRK4 (human)
  residual activity: 106%
NEK11 (human)
  residual activity: 90.4%
CDK2 CCNA2 (human)
  residual activity: 100%
SRMS (human)
  residual activity: 104%
EPHB3 (human)
  residual activity: 90%
AURKA (human)
  residual activity: 91.3%
ULK2 (human)
  residual activity: 97%
GRK6 (human)
  residual activity: 104%
PNCK (human)
  residual activity: 99%

## COc1ccc(C(=O)Nc2sc3c(c2C(N)=O)CCCC3)cc1OC
WEE1 (human)
  residual activity: 92.3%
MAP3K9 (human)
  residual activity: 101%
[1]
  residual activity: 110%
CSNK2A2 (human)
  residual activity: 104%
TBK1 (human)
  residual activity: 102%
RPS6KA4 KD2 (human)
  residual activity: 102%
MET (human)
  residual activity: 82.8%
MAPKAPK3 (human)
  residual activity: 97.2%
HCK (human)
  residual activity: 109%
ERBB2 (human)
  residual activity: 93.3%
EPHA2 (human)
  residual activity: 102%
SRPK2 (human)
  residual activity: 97.6%
ACVRL1 (human)
  residual activity: 110%
RPS6KB2 (human)
  residual activity: 101%
CLK4 (human)
  residual activity: 86.8%
HIPK2 (human)
  residual activity: 107%
PRKCE (human)
  residual activity: 95%
RPS6KA3 KD1 KD2 (human)
  residual activity: 93%
CSNK2A1 (human)
  residual activity: 98.8%
CDK1 CCNB1 (human)
  residual activity: 94.3%
CDK5 CDK5R1 p25 (human)
  residual activity: 94.2%
NTRK1 (human)
  residual activity: 104%
EPHA1 (human)
  residual activity: 88.1%
ROS1 (human)
  residual activity: 78.8%
CDK4 CCND3 (human)
  residual activity: 98.8%
PKN2 (human)
  residual activity: 98.5%
PIM1 (human)
  residual activity: 98.9%
ULK1 (human)
  residual activity: 96%
FGFR4 (human)
  residual activity: 105%
VRK1 (human)
  residual activity: 95.3%
NUAK2 (human)
  residual activity: 99.5%
WNK2 (human)
  residual activity: 100%
GRK4 (human)
  residual activity: 95.1%
NEK11 (human)
  residual activity: 102%
CDK2 CCNA2 (human)
  residual activity: 103%
SRMS (human)
  residual activity: 91%
EPHB3 (human)
  residual activity: 92.4%
AURKA (human)
  residual activity: 97.9%
ULK2 (human)
  residual activity: 105%
GRK6 (human)
  residual activity: 98.5%
PNCK (human)
  residual activity: 103%
